The IC50 is the concentration at which inhibition is half-maximal. A high value points to weaker potency.

Assay [1] concerns the target T1, HIV-1 integrase (IN) (Human immunodeficiency virus type 1 group M subtype B, UniProt P12497). Briefly: In vitro integrase catalytic assay, strand transfer (ST). It is filed as biochemical. The note with it: 400 nM IN, 20 nM 32P-labeled pre-cleaved 19T/21B DNA, 37 °C, 2 h. The protocol:
(§1) IN reactions were performed as previously described. […] Reactions were performed at 37 °C (2 h) and quenched by the addition of an equal volume of loading buffer (formamide containing 1% sodium dodecyl sulfate, 0.25% bromophenol blue, and xylene cyanol). Reaction products were separated in 16% polyacrylamide denaturing sequencing gels. Dried gels were visualized using a Typhoon 8600 instrument (GE Healthcare, Chicago, IL, USA). Densitometric analyses were performed using ImageQuant 5.1 software (GE Healthcare, Chicago, IL, USA). Data analyses (linear regression, 50% inhibitory concentration [IC50] determination, standard deviation [SD]) were performed from at least 3 independent determinations using Prism 5.0c software from GraphPad (La Jolla, CA, USA). To assay 3′-P inhibitory potency, reactions were carried out with [γ-^32P]-labeled full-length oligonucleotide 21T ([…]) annealed to the complementary oligonucleotide 21B ([…]). Formation of the shorter processed 19T products was monitored and quantified to assess enzyme performance and inhibitor potency. The ST reactions were carried out with the [γ-^32P]-labeled pre-cleaved oligonucleotide 19T ([…]) annealed to the complementary oligonucleotide 21B ([…]) and formation of integration products (longer and slower migrating than the starting 19T substrate) was monitored to assess enzyme performance and inhibitor potency.

In assay [2] the target is T1, HIV-1 integrase (IN). Briefly: In vitro integrase catalytic assay, 3'-processing (3'-P). Format: biochemical. The note with it: 400 nM IN, 20 nM 32P-labeled 21T/21B DNA, 37 °C, 2 h. On the procedure:
as §1

The structures appear in SMILES notation. Several values for one entry are separate records, joined by “and”; a condition that tells them apart may be missing. Equal values may be shown once. Where a SMILES comes first, the peptide text is derived from it. [ ]: non-standard residue; d: D form. Bpa = N[C@@H](Cc1ccc(C(=O)c2ccccc2)cc1)C(=O)O

For the compound `CC[C@H](C)[C@H](NC(=O)[C@H](CCCNC(=N)N)NC(=O)[C@H](Cc1ccccc1)NC(=O)[C@H](Cc1c[nH]cn1)NC(=O)[C@@H](NC(=O)[C@@H](N)Cc1ccccc1)[C@@H](C)CC)C(=O)NCC(N)=O` [Peptide 1b, FIHFRIG-amide] (H-FIHFRIG-NH2), the IC50 on HIV-1 integrase (IN) [1] was determined as 7.3 ± 0.8 µM; against HIV-1 integrase (IN) [2], 31.5 ± 6 µM.
Regarding `CC[C@H](C)[C@H](NC(=O)[C@H](CCCNC(=N)N)NC(=O)[C@H](Cc1ccccc1)NC(=O)[C@H](Cc1c[nH]cn1)NC(=O)[C@@H](NC(=O)[C@H](Cc1ccccc1)NC(C)=O)[C@@H](C)CC)C(=O)NCC(N)=O` [Peptide 1c, Ac-FIHFRIG-amide] (Ac-FIHFRIG-NH2), the IC50 is 4.7 ± 0.3 µM against HIV-1 integrase (IN) [1] and 23.5 ± 3 µM on HIV-1 integrase (IN) [2].
Consider `CC[C@H](C)[C@H](NC(=O)[C@H](CCCNC(=N)N)NC(=O)[C@H](Cc1ccccc1)NC(=O)[C@H](Cc1c[nH]cn1)NC(=O)[C@@H](NC(=O)[C@@H](N)Cc1ccccc1)[C@@H](C)CC)C(=O)N[C@@H](C)C(=O)O` [Peptide 2a, FIHFRIA] (H-FIHFRIA-OH), for which the values for the IC50 at HIV-1 integrase (IN) [1] and against HIV-1 integrase (IN) [2] were 34.7 ± 2.3 µM and greater than 111 µM, respectively.
Take `CC[C@H](C)[C@H](NC(=O)[C@H](CCCNC(=N)N)NC(=O)[C@H](Cc1ccccc1)NC(=O)[C@H](Cc1c[nH]cn1)NC(=O)[C@@H](NC(=O)[C@@H](N)Cc1ccccc1)[C@@H](C)CC)C(=O)N[C@@H](C)C(N)=O` [Peptide 2b, FIHFRIA-amide] (H-FIHFRIA-NH2): the IC50 against HIV-1 integrase (IN) [1] was 60.6 ± 8 µM; at HIV-1 integrase (IN) [2], greater than 111 µM.
Take `CC[C@H](C)[C@H](NC(=O)[C@H](CCCNC(=N)N)NC(=O)[C@H](Cc1ccccc1)NC(=O)[C@H](Cc1c[nH]cn1)NC(=O)[C@@H](NC(=O)[C@H](Cc1ccccc1)NC(C)=O)[C@@H](C)CC)C(=O)N[C@@H](C)C(N)=O` [Peptide 2c, Ac-FIHFRIA-amide] (Ac-FIHFRIA-NH2): the IC50 against HIV-1 integrase (IN) [1] came to 30.4 ± 0.7 µM; on HIV-1 integrase (IN) [2], 74.5 ± 7 µM.
For `CC[C@H](C)[C@H](NC(=O)[C@@H](N)Cc1ccccc1)C(=O)N[C@@H](Cc1c[nH]cn1)C(=O)N[C@@H](Cc1ccccc1)C(=O)N[C@@H](CCCNC(=N)N)C(=O)N[C@@H](C)C(=O)NCC(=O)O` [Peptide 3a, FIHFRAG] (H-FIHFRAG-OH), in that order: 22.4 ± 1.7 µM and 66.5 ± 7 µM.
For `CC[C@H](C)[C@H](NC(=O)[C@@H](N)Cc1ccccc1)C(=O)N[C@@H](Cc1c[nH]cn1)C(=O)N[C@@H](Cc1ccccc1)C(=O)N[C@@H](CCCNC(=N)N)C(=O)N[C@@H](C)C(=O)NCC(N)=O` [Peptide 3b, FIHFRAG-amide] (H-FIHFRAG-NH2), the IC50 on HIV-1 integrase (IN) [1] and on HIV-1 integrase (IN) [2] was greater than 111 µM each time.
Take `CC[C@H](C)[C@H](NC(=O)[C@H](Cc1ccccc1)NC(C)=O)C(=O)N[C@@H](Cc1c[nH]cn1)C(=O)N[C@@H](Cc1ccccc1)C(=O)N[C@@H](CCCNC(=N)N)C(=O)N[C@@H](C)C(=O)NCC(N)=O` [Peptide 3c, Ac-FIHFRAG-amide] (Ac-FIHFRAG-NH2): the half-inhibitory concentration (IC50) is 28 ± 4 µM against HIV-1 integrase (IN) [1] and 208 ± 12 µM at HIV-1 integrase (IN) [2].
Regarding `CC[C@H](C)[C@H](NC(=O)[C@H](C)NC(=O)[C@H](Cc1ccccc1)NC(=O)[C@H](Cc1c[nH]cn1)NC(=O)[C@@H](NC(=O)[C@@H](N)Cc1ccccc1)[C@@H](C)CC)C(=O)NCC(=O)O` [Peptide 4a, FIHFAIG] (H-FIHFAIG-OH), the IC50 at HIV-1 integrase (IN) [1] and against HIV-1 integrase (IN) [2] was greater than 111 µM each time.
Turning to `CC[C@H](C)[C@H](NC(=O)[C@H](C)NC(=O)[C@H](Cc1ccccc1)NC(=O)[C@H](Cc1c[nH]cn1)NC(=O)[C@@H](NC(=O)[C@@H](N)Cc1ccccc1)[C@@H](C)CC)C(=O)NCC(N)=O` [Peptide 4b, FIHFAIG-amide] (H-FIHFAIG-NH2), the IC50 on HIV-1 integrase (IN) [1] and on HIV-1 integrase (IN) [2] was greater than 111 µM throughout.
Turning to `CC[C@H](C)[C@H](NC(=O)[C@H](C)NC(=O)[C@H](Cc1ccccc1)NC(=O)[C@H](Cc1c[nH]cn1)NC(=O)[C@@H](NC(=O)[C@H](Cc1ccccc1)NC(C)=O)[C@@H](C)CC)C(=O)NCC(N)=O` [Peptide 4c, Ac-FIHFAIG-amide] (Ac-FIHFAIG-NH2), the half-maximal inhibitory concentration (IC50) is 81 ± 9 µM at HIV-1 integrase (IN) [1] and greater than 333 µM on HIV-1 integrase (IN) [2].
In the case of `CC[C@H](C)[C@H](NC(=O)[C@H](CCCNC(=N)N)NC(=O)[C@H](C)NC(=O)[C@H](Cc1c[nH]cn1)NC(=O)[C@@H](NC(=O)[C@@H](N)Cc1ccccc1)[C@@H](C)CC)C(=O)NCC(=O)O` [Peptide 5a, FIHARIG] (H-FIHARIG-OH), the IC50 at HIV-1 integrase (IN) [1] is 46.6 ± 6.5 µM; against HIV-1 integrase (IN) [2], greater than 111 µM.
As for `CC[C@H](C)[C@H](NC(=O)[C@H](CCCNC(=N)N)NC(=O)[C@H](C)NC(=O)[C@H](Cc1c[nH]cn1)NC(=O)[C@@H](NC(=O)[C@@H](N)Cc1ccccc1)[C@@H](C)CC)C(=O)NCC(N)=O` [Peptide 5b, FIHARIG-amide] (H-FIHARIG-NH2), the IC50 against HIV-1 integrase (IN) [1] and on HIV-1 integrase (IN) [2] was greater than 111 µM throughout.
On to `CC[C@H](C)[C@H](NC(=O)[C@H](CCCNC(=N)N)NC(=O)[C@H](C)NC(=O)[C@H](Cc1c[nH]cn1)NC(=O)[C@@H](NC(=O)[C@H](Cc1ccccc1)NC(C)=O)[C@@H](C)CC)C(=O)NCC(N)=O` [Peptide 5c, Ac-FIHARIG-amide] (Ac-FIHARIG-NH2), for which the results for the IC50 on HIV-1 integrase (IN) [1] and against HIV-1 integrase (IN) [2] were 117 ± 10 µM and greater than 333 µM, respectively.
On to `CC[C@H](C)[C@H](NC(=O)[C@H](CCCNC(=N)N)NC(=O)[C@H](Cc1ccccc1)NC(=O)[C@H](C)NC(=O)[C@@H](NC(=O)[C@@H](N)Cc1ccccc1)[C@@H](C)CC)C(=O)NCC(=O)O` [Peptide 6a, FIAFRIG] (H-FIAFRIG-OH), for which the values for the IC50 at HIV-1 integrase (IN) [1] and at HIV-1 integrase (IN) [2] were 6.7 ± 1 µM and 17.4 ± 2 µM, respectively.
For the compound `CC[C@H](C)[C@H](NC(=O)[C@H](CCCNC(=N)N)NC(=O)[C@H](Cc1ccccc1)NC(=O)[C@H](C)NC(=O)[C@@H](NC(=O)[C@@H](N)Cc1ccccc1)[C@@H](C)CC)C(=O)NCC(N)=O` [Peptide 6b, FIAFRIG-amide] (H-FIAFRIG-NH2), the concentration for half-maximal inhibition (IC50) at HIV-1 integrase (IN) [1] is 35 ± 3.2 µM; on HIV-1 integrase (IN) [2] it was 95.4 ± 5 µM.
In the same order, the values of `CC[C@H](C)[C@H](NC(=O)[C@H](CCCNC(=N)N)NC(=O)[C@H](Cc1ccccc1)NC(=O)[C@H](C)NC(=O)[C@@H](NC(=O)[C@H](Cc1ccccc1)NC(C)=O)[C@@H](C)CC)C(=O)NCC(N)=O` [Peptide 6c, Ac-FIAFRIG-amide] (Ac-FIAFRIG-NH2) are 3.5 ± 0.3 µM and 94 ± 13 µM.
For `CC[C@H](C)[C@H](NC(=O)[C@H](CCCNC(=N)N)NC(=O)[C@H](Cc1ccccc1)NC(=O)[C@H](Cc1c[nH]cn1)NC(=O)[C@H](C)NC(=O)[C@@H](N)Cc1ccccc1)C(=O)NCC(=O)O` [Peptide 7a, FAHFRIG] (H-FAHFRIG-OH), in that order: 73.5 ± 6 µM and greater than 111 µM.
Turning to `CC[C@H](C)[C@H](NC(=O)[C@H](CCCNC(=N)N)NC(=O)[C@H](Cc1ccccc1)NC(=O)[C@H](Cc1c[nH]cn1)NC(=O)[C@H](C)NC(=O)[C@@H](N)Cc1ccccc1)C(=O)NCC(N)=O` [Peptide 7b, FAHFRIG-amide] (H-FAHFRIG-NH2), the half-maximal inhibitory concentration (IC50) against HIV-1 integrase (IN) [1] and on HIV-1 integrase (IN) [2] was greater than 111 µM throughout.
As to `CC[C@H](C)[C@H](NC(=O)[C@H](CCCNC(=N)N)NC(=O)[C@H](Cc1ccccc1)NC(=O)[C@H](Cc1c[nH]cn1)NC(=O)[C@H](C)NC(=O)[C@H](Cc1ccccc1)NC(C)=O)C(=O)NCC(N)=O` [Peptide 7c, Ac-FAHFRIG-amide] (Ac-FAHFRIG-NH2), the IC50 was 127 ± 14 µM against HIV-1 integrase (IN) [1] and greater than 333 µM against HIV-1 integrase (IN) [2].
Regarding `CC[C@H](C)[C@H](NC(=O)[C@H](C)N)C(=O)N[C@@H](Cc1c[nH]cn1)C(=O)N[C@@H](Cc1ccccc1)C(=O)N[C@@H](CCCNC(=N)N)C(=O)N[C@H](C(=O)NCC(=O)O)[C@@H](C)CC` [Peptide 8a, AIHFRIG] (H-AIHFRIG-OH), the IC50 against HIV-1 integrase (IN) [1] came out at 22.7 ± 1.4 µM; at HIV-1 integrase (IN) [2] it was 86.3 ± 5 µM.
`CC[C@H](C)[C@H](NC(=O)[C@H](C)N)C(=O)N[C@@H](Cc1c[nH]cn1)C(=O)N[C@@H](Cc1ccccc1)C(=O)N[C@@H](CCCNC(=N)N)C(=O)N[C@H](C(=O)NCC(N)=O)[C@@H](C)CC` [Peptide 8b, AIHFRIG-amide] (H-AIHFRIG-NH2): the IC50 at HIV-1 integrase (IN) [1] and at HIV-1 integrase (IN) [2] was greater than 111 µM in each case.
With `CC[C@H](C)[C@H](NC(=O)[C@H](C)NC(C)=O)C(=O)N[C@@H](Cc1c[nH]cn1)C(=O)N[C@@H](Cc1ccccc1)C(=O)N[C@@H](CCCNC(=N)N)C(=O)N[C@H](C(=O)NCC(N)=O)[C@@H](C)CC` [Peptide 8c, Ac-AIHFRIG-amide] (Ac-AIHFRIG-NH2), the IC50 against HIV-1 integrase (IN) [1] is 46 ± 8 µM; on HIV-1 integrase (IN) [2], greater than 333 µM.
As for `CC[C@H](C)[C@H](NC(=O)[C@@H](N)Cc1ccccc1)C(=O)N[C@@H](Cc1c[nH]cn1)C(=O)N[C@@H](Cc1ccccc1)C(=O)N[C@@H](CCCNC(=N)N)C(=O)N[C@@H](Cc1ccc(C(=O)c2ccccc2)cc1)C(=O)NCC(=O)O` [Peptide 9a, FIHFRBG] (H-FIHFR[Bpa]G-OH), the IC50 is 4 µM and 4.3 µM against HIV-1 integrase (IN) [1]; 20 ± 3 µM against HIV-1 integrase (IN) [2].
In the case of `CC[C@H](C)[C@H](NC(=O)[C@H](Cc1ccc(C(=O)c2ccccc2)cc1)NC(=O)[C@H](Cc1ccccc1)NC(=O)[C@H](Cc1c[nH]cn1)NC(=O)[C@@H](NC(=O)[C@@H](N)Cc1ccccc1)[C@@H](C)CC)C(=O)NCC(=O)O` [Peptide 10a, FIHFBIG] (H-FIHF[Bpa]IG-OH), the IC50 against HIV-1 integrase (IN) [1] is ~50 µM and 48 µM; against HIV-1 integrase (IN) [2], greater than 333 µM.

The values above are taken from article PMC6222646, “HIV-1 Integrase-Targeted Short Peptides Derived from a Viral Protein R Sequence” (Molecules : A Journal of Synthetic Chemistry and Natural …, 2018).
